The experiment concerns the target T1, A2BAR (A2B adenosine receptor) (Homo sapiens, UniProt P29275).
T1 construct: gene ADORA2B
T1 sequence (P29275 1-332): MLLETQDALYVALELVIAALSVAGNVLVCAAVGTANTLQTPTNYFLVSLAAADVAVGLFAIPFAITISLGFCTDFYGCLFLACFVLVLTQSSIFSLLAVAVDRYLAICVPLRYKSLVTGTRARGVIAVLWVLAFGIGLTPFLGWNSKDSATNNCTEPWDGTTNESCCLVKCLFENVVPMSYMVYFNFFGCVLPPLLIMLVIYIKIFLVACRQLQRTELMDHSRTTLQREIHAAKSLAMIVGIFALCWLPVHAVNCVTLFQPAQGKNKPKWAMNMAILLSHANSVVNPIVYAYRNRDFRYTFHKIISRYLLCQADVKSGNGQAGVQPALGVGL
In words: […]GTPγS binding, membranes of U343MG-derived CSCs (endogenous receptor). It is filed as biochemical.

As a reminder, the EC50 is the concentration at which the effect is half-maximal. Low readings indicate greater potency, high ones weaker potency.

For `N#Cc1c(N)nc(SCC(N)=O)c(C#N)c1-c1ccc(OCC2CC2)cc1` [BAY606583, 2-[6-Amino-3,5-dicyano-4-[4-(cyclopropylmethoxy)-phenyl]pyridin-2-ylsulfanyl]acetamide], the concentration for a half-maximal effect (EC50) came to 1.9 ± 0.2 nM.

For the origin of these results see publication PMC4260745, “Modulation of A1 and A2B adenosine receptor activity: a new strategy to sensitise glioblastoma stem cells to chemotherapy” (Cell Death & Disease, 2014).
